{"source": "patent US5043336A", "about": "(priority 1990, dated 1991)", "key": {"[1]": {"test_system": "CCRF-CEM cell line (human leukemic cells)", "assay": "CCRF-CEM Cytotoxicity Assay (growth inhibition of human leukemic cells, 72 h)", "format": "cell-based", "settings": "37° C.; for IC50: Homo sapiens, CCRF-CEM, 72 h, read-out: IC50 (concentration giving 50% growth inhibition)", "procedure": "The CEM cells were grown in RPMI 1640 media (MA Bioproducts) at 37° C. in humidified atmospheric conditions of 95% air and 5% carbon dioxide. The cells were grown in static suspension and maintained in log growth phase at a concentration of 3-7×10^5 cells/ml. The cells were dispersed in wells at a concentration of 4.8×10^4 /well. The drug was dissolved in dimethyl sulfoxide or water and was added at different dilutions to the cluster plates (wells). The cluster plates were incubated at 37° C. for 72 hours. After 72 hours the wells were read using a ZBI Coulter particle counter. Table 2 below gives the results of such testing of several compounds represented by Formula I above. In the table, Column 1 gives the name of the compound and Column 2 gives the IC50 (concentration giving 50% growth inhibition) in μg/ml."}, "[2]": {"assay": "pKa (66% DMF)", "format": "physicochemical"}, "[3]": {"assay": "trial test of the water solubility of the salt", "format": "physicochemical", "settings": "after adjusting pH to 3.6, before additional 0.5 ml of 2% sulfuric acid", "procedure": "All of the 4-desacetyl VLB C-3 N^2 -(hexahydro-2-methyl-7-oxo-1H-azepin-1-yl)carboxhydrazide prepared from Example 6 was dissolved in 50 ml of ethanol. The initial pH of 4.9 was adjusted to 3.6 with 2% sulfuric acid in ethanol. […] This material was evaporated to dryness in vacuo, which yielded 750 mg of the title compounds."}, "[4]": {"test_system": "Gardner lymphosarcoma", "settings": "transplanted tumors in mice; cited from earlier work"}, "[5]": {"test_system": "P1534(J) leukemia", "settings": "transplanted tumors in mice; cited from earlier work"}, "[6]": {"test_system": "Ridgeway osteogenic sarcoma", "settings": "transplanted tumors in mice; cited from earlier work"}, "[7]": {"test_system": "experimental malignancies", "settings": "in vivo; cited from earlier work"}, "[8]": {"settings": "in humans; cited from earlier work"}, "[9]": {"test_system": "vincristine-resistant leukemias", "settings": "in humans; cited from earlier work"}}, "note": "Where a name gives a salt, the structure may show the parent alone.", "data": [{"smiles": "CC[C@]1(O)C[C@@H]2CN(CCc3c([nH]c4ccccc34)[C@@](C(=O)OC)(c3cc4c(cc3OC)N(C)[C@H]3[C@@](O)(C(=O)NN5C(=O)CCC5C)[C@H](O)[C@]5(CC)C=CCN6CC[C@]43[C@@H]65)C2)C1", "note": "(single isomer, unassigned) [4-Desacetyl VLB C-3 N^2 -(2-methyl-5-oxo-1-pyrrolidinyl)carb] [4-Desacetyl VLB C-3 N^2-(2-methyl-5-oxo-1-pyrrolidinyl)carboxhydrazide(Isomer 2) sulfate salt]", "values": [{"measurement": "IC50 (concentration giving 50% growth inhibition)", "setting": "[1]; sulfate salt", "result": 0.09, "unit": "µg/mL"}]}, {"smiles": "CC[C@]1(O)C[C@@H]2CN(CCc3c([nH]c4ccccc34)[C@@](C(=O)OC)(c3cc4c(cc3OC)N(C)[C@H]3[C@@](O)(C(=O)NN5C(=O)CCC5C)[C@H](O)[C@]5(CC)C=CCN6CC[C@]43[C@@H]65)C2)C1", "note": "(single isomer, unassigned) [4-Desacetyl VLB C-3 N^2-(2-methyl-5-oxo-1-pyrrolidinyl)carboxhydrazide(Isomer 1) sulfate salt]", "values": [{"measurement": "IC50", "setting": "[1]", "result": 0.1, "unit": "µg/mL"}]}, {"smiles": "CC[C@]1(O)C[C@@H]2CN(CCc3c([nH]c4ccccc34)[C@@](C(=O)OC)(c3cc4c(cc3OC)N(C)[C@H]3[C@@](O)(C(=O)N5N=C(C)CCCC5=O)[C@H](O)[C@]5(CC)C=CCN6CC[C@]43[C@@H]65)C2)C1", "note": "[4-Desacetyl VLB C-3 N^1-(4,5,6,7-tetrahydro-3-methyl-7-oxo-1H-1,2-diazepin-1-yl)carboxhydrazide sulfate salt]", "values": [{"measurement": "IC50", "setting": "[1]", "result": 0.019, "unit": "µg/mL"}]}, {"smiles": "CC[C@]1(O)C[C@@H]2CN(CCc3c([nH]c4ccccc34)[C@@](C(=O)OC)(c3cc4c(cc3OC)N(C)[C@H]3[C@@](O)(C(=O)NNC(C)CCC(=O)O)[C@H](O)[C@]5(CC)C=CCN6CC[C@]43[C@@H]65)C2)C1", "note": "(some centres unmarked) [4-Desacetyl VLB C-3 N^2-(3-carboxy-1-methylpropyl)carboxhydrazide]", "values": [{"measurement": "pKa", "setting": "[2]; first value listed", "result": 5.3}, {"measurement": "pKa", "setting": "[2]; second value listed", "result": 6.9}, {"measurement": "pKa", "setting": "[2]; third value listed", "result": 7.9}]}, {"smiles": "CC[C@]1(O)C[C@@H]2CN(CCc3c([nH]c4ccccc34)[C@@](C(=O)OC)(c3cc4c(cc3OC)N(C)[C@H]3[C@@](O)(C(=O)NN=C(C)CCCC(=O)O)[C@H](O)[C@]5(CC)C=CCN6CC[C@]43[C@@H]65)C2)C1", "note": "[4-Desacetyl VLB C-3 N^2-(4-carboxy-1-methylbutylidene)carboxhydrazide]", "values": [{"measurement": "pKa", "setting": "[2]; first value listed", "result": 5.1}, {"measurement": "pKa", "setting": "[2]; second value listed", "result": 6.6}, {"measurement": "pKa", "setting": "[2]; third value listed", "result": 7.7}]}, {"smiles": "CC[C@]1(O)C[C@@H]2CN(CCc3c([nH]c4ccccc34)[C@@](C(=O)OC)(c3cc4c(cc3OC)N(C)[C@H]3[C@@](O)(C(=O)NN=C(C)CCCCC(=O)O)[C@H](O)[C@]5(CC)C=CCN6CC[C@]43[C@@H]65)C2)C1", "note": "[4-Desacetyl VLB C-3 N^2-(5-carboxy-1-methylpentylidene)carboxhydrazide]", "values": [{"measurement": "pKa", "setting": "[2]; first value listed", "result": 5.3}, {"measurement": "pKa", "setting": "[2]; second value listed", "result": 7}, {"measurement": "pKa", "setting": "[2]; third value listed", "result": 8.1}]}, {"smiles": "CC[C@]1(O)C[C@@H]2CN(CCc3c([nH]c4ccccc34)[C@@](C(=O)OC)(c3cc4c(cc3OC)N(C)[C@H]3[C@@](O)(C(=O)NN5C(=O)CCCCC5C)[C@H](O)[C@]5(CC)C=CCN6CC[C@]43[C@@H]65)C2)C1", "note": "(some centres unmarked) [4-Desacetyl VLB C-3 N^2-(hexahydro-2-methyl-7-oxo-1H-azepin-1-yl)carboxhydrazide sulfate salt]", "values": [{"measurement": "IC50", "setting": "[1]", "result": 0.0056, "unit": "µg/mL"}, {"measurement": "water solubility of the salt", "setting": "[3]", "result": "not completely soluble"}]}, {"smiles": "CC[C@]1(O)C[C@@H]2CN(CCc3c([nH]c4ccccc34)[C@@](C(=O)OC)(c3cc4c(cc3OC)N(C)[C@H]3[C@@](O)(C(=O)NN)[C@H](O)[C@]5(CC)C=CCN6CC[C@]43[C@@H]65)C2)C1", "note": "[4-Desacetyl VLB C-3 carboxhydrazide]", "values": [{"measurement": "activity against Gardner lymphosarcoma", "setting": "[4]", "result": "active"}, {"measurement": "activity against P1534(J) leukemia", "setting": "[5]", "result": "active"}, {"measurement": "activity against Ridgeway osteogenic sarcoma", "setting": "[6]", "result": "active"}]}, {"smiles": "CCC1(O)CN2CCc3c([nH]c4ccccc34)C(C(=O)OC)(c3cc4c(cc3OC)N(C)C3C(O)(C(=O)OC)CC5(CC)C=CCN6CCC43C65)CC(C2)C1O", "note": "(centres unmarked) [4-desacetoxy-3'-hydroxyvinblastine]", "values": [{"measurement": "activity in the treatment of experimental malignancies in animals", "setting": "[7]", "result": "active"}]}, {"smiles": "CC[C@]1(O)C[C@@H]2CN(CCc3c([nH]c4ccccc34)[C@@](C(=O)OC)(c3cc4c(cc3OC)N(C)[C@@H]3[C@]45CCN4CC=C[C@@](CC)(C[C@]3(O)C(=O)OC)[C@H]45)C2)C1", "note": "[4-desacetoxyvinblastine]", "values": [{"measurement": "activity in the treatment of experimental malignancies in animals", "setting": "[7]", "result": "active"}]}, {"smiles": "CC[C@]1(O)C[C@@H]2CN(CCc3c([nH]c4ccccc34)[C@@](C(=O)OC)(c3cc4c(cc3OC)N(C)[C@H]3[C@@](O)(C(=O)OC)[C@H](OC(C)=O)[C@]5(CC)C=CCN6CC[C@]43[C@@H]65)C2)C1", "note": "[VLB, vincaleukoblastine]", "values": [{"measurement": "activity in the treatment of experimental malignancies in animals", "setting": "[7]", "result": "active"}]}, {"smiles": "CCC1CC2CN(CCc3c([nH]c4ccccc34)C(C(=O)OC)(c3cc4c(cc3OC)N(C)C3C(O)(C(=O)OC)C(OC(C)=O)C5(CC)C=CCN6CCC43C65)C2)C1", "note": "(centres unmarked) [deoxy VLB \"A\"]", "values": [{"measurement": "activity in the treatment of experimental malignancies in animals", "setting": "[7]", "result": "active"}]}, {"smiles": "CCC1(O)CN2CCc3c([nH]c4ccccc34)C(C(=O)OC)(c3cc4c(cc3OC)N(C)C3C(O)(C(=O)OC)C(OC(C)=O)C5(CC)C=CCN6CCC43C65)CC(O)(C2)C1", "note": "(centres unmarked) [leurocolombine]", "values": [{"measurement": "activity in the treatment of experimental malignancies in animals", "setting": "[7]", "result": "active"}]}, {"smiles": "CC[C@]12CN3CCc4c([nH]c5ccccc45)[C@@](C(=O)OC)(c4cc5c(cc4OC)N(C=O)[C@H]4[C@@](O)(C(=O)OC)[C@H](OC(C)=O)[C@]6(CC)C=CCN7CC[C@]54[C@@H]76)C[C@@H](C3)[C@H]1O2", "note": "[leuroformine]", "values": [{"measurement": "activity in the treatment of experimental malignancies in animals", "setting": "[7]", "result": "active"}]}, {"smiles": "CC[C@@]1(O)C[C@@H]2CN(CCc3c([nH]c4ccccc34)[C@@](C(=O)OC)(c3cc4c(cc3OC)N(C)[C@H]3[C@@](O)(C(=O)OC)[C@H](OC(C)=O)[C@]5(CC)C=CCN6CC[C@]43[C@@H]65)C2)C1", "note": "[leurosidine]", "values": [{"measurement": "activity in the treatment of experimental malignancies in animals", "setting": "[7]", "result": "active"}]}, {"smiles": "CC[C@]12CN3CCc4c([nH]c5ccccc45)[C@@](C(=O)OC)(c4cc5c(cc4OC)N(C)[C@H]4[C@@](O)(C(=O)OC)[C@H](OC(C)=O)[C@]6(CC)C=CCN7CC[C@]54[C@@H]76)C[C@H](C3)[C@H]1O2", "note": "[leurosine]", "values": [{"measurement": "activity in the treatment of experimental malignancies in animals", "setting": "[7]", "result": "active"}]}, {"smiles": "CCC1(O)CN2CCc3c([nH]c4ccccc34)C(C(=O)OC)(c3cc4c(cc3OC)N(C)C3C(O)(C(=O)OC)C(OC(C)=O)C5(CC)C=CCN6CCC43C65)CC(C2)C1O", "note": "(centres unmarked) [vincadioline]", "values": [{"measurement": "activity in the treatment of experimental malignancies in animals", "setting": "[7]", "result": "active"}]}, {"smiles": "CC[C@]1(O)C[C@H]2CN(CCc3c([nH]c4ccccc34)[C@@](C(=O)OC)(c3cc4c(cc3OC)N(C=O)[C@H]3[C@@](O)(C(=O)OC)[C@H](OC(C)=O)[C@]5(CC)C=CCN6CC[C@]43[C@@H]65)C2)C1", "note": "[vincristine]", "values": [{"measurement": "activity in the treatment of experimental malignancies in animals", "setting": "[7]", "result": "active"}]}, {"smiles": "CC[C@]1(O)C[C@@H]2CN(CCc3c([nH]c4ccccc34)[C@@](C(=O)OC)(c3cc4c(cc3OC)N(C)[C@H]3[C@@](O)(C(N)=O)[C@H](O)[C@]5(CC)C=CCN6CC[C@]43[C@@H]65)C2)C1", "note": "[vindesine, 4-desacetyl VLB C-3 carboxamide]", "values": [{"measurement": "neurotoxicity compared with vincristine", "setting": "[8]", "result": "less neurotoxicity than does vincristine"}, {"measurement": "effectiveness against vincristine-resistant leukemias", "setting": "[9]", "result": "apparently effective"}]}]}
